# Experimental data from publication PMC8998904, “Identification and New Indication of Melanin-Concentrating Hormone Receptor 1 (MCHR1) Antagonist Derived from Machine Learning and Transcriptome-Based Drug Repositioning Approaches” (International Journal of Molecular Sciences, 2022).
# How the values were obtained:
# hERG channel = target: T1, hERG channel (Homo sapiens, UniProt Q12809); assay: Patch clamp assay on HEK293-hERG cells; assay type: cell-based
# T1 construct: host or cells: HEK293
# Protocol: (§1) An in vitro time-resolved fluorescence (TRF)-based binding assay for MCHR1 was performed to identify the MCHR1 antagonist from the 19 predicted compounds selected through in silico screening. […] In addition, a patch clamp assay was performed to measure the cardiotoxicity of the five compounds. […] Consequently, of the five compounds, only KRX-104130 and KRX-104165 overcame cardiotoxicity.
# Patch clamp assays were performed on HEK293 cells stably expressing the hERG channel (HEK293-hERG cells; Genionics, Switzerland). When the cells were more than 80% confluent, they were freshly dislodged from flasks with 0.05% trypsin–EDTA for 1–2 min, spun down twice at 700× g, suspended into the extracellular solution (in mmol/L at 1.8 × 10^6 per mL: 137 NaCl, 4 KCl, 1 MgCl2, 1.8 CaCl2, 10 HEPES, and 10 glucose, pH 7.4, adjusted with NaOH), and dispensed into a patch clamp plate. The cell density was adjusted to 2–3 × 10^5 cells/mL. After dispensing, the cells were applied to the AutoPatch system (PatchXpress 7000A, Molecular Devices, Sunnyvale, CA, USA). The hERG currents were evoked by two voltage pulses at 3 s interval. The voltage pulse consisted of a 100-ms step to −30 mV, a conditioning prepulse (2 s duration, +25 mV or +45 mV), followed by a test pulse (2 s duration, −30 mV) from a holding potential of −70 mV. After a 3 s interval at −70 mV, a second pulse protocol was applied, consisting of a 100-ms step to −30 mV, a prepulse (2 s duration, +45 mV), followed by a test pulse (2 s duration, −30 mV). Leak currents were linearly subtracted, extrapolating the current elicited by a 100-ms step to −80 mV from a holding potential of −70 mV. The experiment was initiated with a buffer control in the absence of the drug to calculate the IC50. The test compound was applied at low to high concentrations, and the tail current was monitored continuously. The compound effects were tested using six concentrations in three-fold dilutions from 1 to 300 µM.
# [1] = target: T2, human recombinant MCH-1 receptor (Homo sapiens, UniProt Q99705); assay: Time-resolved fluorescence (TRF)-based MCHR1 receptor-binding assay with Eu-MCH; conditions: for inhibition at 10 µM: TRF MCHR1 binding, read-out: inhibition rate (%) at 10 μM; for IC50: TRF-based binding, 2 nM Eu-MCH
# T2 construct: purchased Euroscreen S.A. (PerkinElmer)
# T2 sequence (Q99705 whole entry): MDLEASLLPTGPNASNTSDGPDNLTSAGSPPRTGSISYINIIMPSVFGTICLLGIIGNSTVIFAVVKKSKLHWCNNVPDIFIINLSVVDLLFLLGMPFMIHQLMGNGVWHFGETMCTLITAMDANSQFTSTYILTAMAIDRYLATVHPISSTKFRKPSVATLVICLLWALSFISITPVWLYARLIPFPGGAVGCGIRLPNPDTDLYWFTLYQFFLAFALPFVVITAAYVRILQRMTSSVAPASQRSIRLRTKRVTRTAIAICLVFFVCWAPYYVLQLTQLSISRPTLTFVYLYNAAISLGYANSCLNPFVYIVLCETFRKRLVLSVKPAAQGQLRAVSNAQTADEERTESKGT
# Protocol: as §1
# The receptor-binding affinities of the generated 19 compounds were determined by time-resolved fluorescence (TRF)-based receptor-binding assays using europium-labeled MCH (Eu-MCH) in 96-well AcroWell™ plates. The MCH labeled with europium at the N-1 position was supplied by the Wallac Labeling Service (PerkinElmer, Inc., Waltham, MA, USA). The human recombinant MCH-1 receptor membrane preparation (MCH-1/SLC1 membrane) was obtained from Euroscreen S.A. (PerkinElmer). The binding assay buffer contained 25 mM 4-(2-hydroxyethyl)-1-piperazineethanesulfonic acid (HEPES; pH 7.4), 5 mM MgCl2, 1 mM CaCl2, and 0.5% bovine serum albumin. Total binding was determined from the binding reaction in the presence of 2 nM Eu-MCH and 5 μg/unit MCH-1 receptor membrane for 90 min. Nonspecific Eu–MCH binding was defined in the presence of 0.5 µM unlabeled MCH. After incubation for 90 min, the plate was washed three times with 300 µL of ice-cold 25 mM HEPES buffer (pH 7.4) in an automatic vacuum filtration system. The Eu was dissociated from the bound ligand by the addition of 150 µL of DELFIA enhancement solution (Perkin Elmer) and incubated for 10 min with shaking. Fluorescence signals from dissociated Eu were measured using a multilabel reader (Envision, PerkinElmer) with an excitation wavelength (340 nm) and an emission wavelength (615 nm).
# [2] = Plasma pharmacokinetic profile in mice (I.V. and P.O.); conditions: for Tolerability / death after administration to mice: pharmacokinetic study; for AUC(0-t): AUC0–t, n=3; for Tolerability / death after administration to mice / AUC(0-t): mice
# LDLR [3] = assay: RT-qPCR analysis of LDLR mRNA expression in HepG2 cells; assay type: cell-based, human; conditions: HepG2 cells, 3, 10 and 30 μM, 24 h
# Protocol: (§2) To validate that KRX-104130 increased the LDLR gene expression through the DEG analysis, LDLR mRNA expression was investigated in KRX-104130–treated HepG2 cells.
# The mRNA expression levels of LDLR in the HepG2 cells were determined by real-time quantitative PCR (RT-qPCR) at the Cosmo Genetech (Sungsoo, Seoul, Korea). The total RNA was extracted from the cultured cells using an RNeasy mini kit (Qiagen, Valencia, CA, USA), and gene expression was analyzed by RT-qPCR using a Bio-Rad CFX96 system (Hercules, CA, USA). The mRNA expression levels were investigated three times in each sample treated with 0 μM, 3 μM, 10 μM, and 30 μM KRX-104130 for 24 h, and each result was obtained from three independent experiments, for 12 samples. For LDLR, the forward primer was 5′-CTCCCGCCAAGATCAAGAAA-3′, and the reverse primer was 5′-GAGATCTAGGGTGATGCCATTG-3′. The housekeeping gene, glyceraldehyde 3-phosphate dehydrogenase (GAPDH), was used as an internal control. The forward primer was 5′-TTGCCATCAATGACCCCTTCA-3′, and the reverse primer was 5′-CGC CCC ACT TGA TTT TGG A-3′. The PCR conditions for all genes were 40 cycles of pre-denaturation at 95 °C for 3 min, amplification at 62 °C for 30 s, and 95 °C for 10 s. The qPCR was performed using CFX manager (Version 3.1).
# [4] = tested on: A375, A549, MCF7 and PC3 cells; assay: mRNA gene expression (transcriptome, DEG) analysis in four cell lines; assay type: cell-based, human; conditions: 10 μM, 6 h; common gene of four cell lines
# Protocol: Transcriptome analysis was performed to identify new indications of KRX-104130. For each of the four cell lines, human skin malignant melanoma cells (A375), human lung carcinoma cells (A549), human breast carcinoma cells (MCF7), and human prostate adenocarcinoma cells (PC3), 10 μM of KRX-104130 was administered for 6 h in the control and treatment groups. As an independent experiment was performed three times, considering the error, the average value was used for comparison. The change in gene expression levels was calculated by dividing the […]. Fold change (FC) was expressed as a positive or negative value when the gene expression value of the treatment group was greater or lower than that of the control group, respectively.
# Four cell lines were used for the cell culture: A375, A549, MCF7, and PC3, purchased from the American Type Culture Collection (ATCC, Rockville, MD, USA). The A375 and A549 cells were cultured in RPMI-1640 medium supplemented with 10% fetal bovine serum (FBS) and 1% penicillin-streptomycin-glutamine. The MCF7 cells were cultured in Dulbecco’s modified Eagle’s medium (DMEM) with 10% FBS and 1% penicillin-streptomycin-glutamine. The PC3 cells were cultured in RPMI with 10% FBS, 1% penicillin-streptomycin-glutamine, 1 mM sodium pyruvate, and 10 mM HEPES. KRX-104130 was synthesized at the Research Center for Medicinal Chemistry, Korea Research Institute of Chemical Technology (KRICT, Daejeon, Korea).
# After releasing the stock, the cells were used in the experiments and cultured for two weeks to stabilize. KRX-104130 was dissolved in dimethylsulfoxide (DMSO) to form a 10 mM stock solution and stored in a deep freezer (−80 °C). Six sheets were seeded in each of the four cell lines, three sheets of DMSO and KRX-104130 (DMSO × 3 and KRX-104130 × 3), and they were stored in an incubator for 24 h. Cells were plated at 1.1375 × 10^6 cells for A375, 1.3 × 10^6 cells for A549, 8.45 × 10^5 cells for MCF7, and 1.496 × 10^6 cells for PC3 under the culture conditions. After 24 h, DMSO and KRX-104130 were diluted 1000-fold in the medium, and the cells were treated with a final concentration of 0.1% DMSO and 10 μM KRX-104130. After 6 h, the medium was removed, and the cells were collected by treatment with 1 mL of TRIzol. After destroying the cells by pipetting, they were stored in a deep freezer (−80 °C).
# The total RNA samples were assessed using the Clariom™ S Assay Human Platform. cDNA was synthesized using the GeneChip WT (Whole Transcript) Amplification Kit as described by the manufacturer. The sense cDNA was then fragmented and biotin-labeled with terminal deoxynucleotidyl transferase (TdT) using the GeneChip WT Terminal labeling kit. Approximately 5.5 μg of labeled DNA target was hybridized to the Affymetrix GeneChip Array at 45 °C for 16 h. The hybridized arrays were washed and stained on a GeneChip Fluidics Station 450 and scanned using a GCS3000 scanner. Probe cell intensity data computation and CEL file generation were performed using Affymetrix® GeneChip Command Console® Software version 6.0+ (AGCC, www.thermofisher.com/kr/ko/home/life-science/microarray-analysis/microarray-analysis-instruments-software-services/microarray-analysis-software/affymetrix-genechip-command-console-software.html, accessed on 1 September 2021). The CEL file is a binary format that contains the intensity calculated result for the pixel values of the DAT file and is used to extract normalized intensity to be used for actual analysis in Affymetrix® Power Tools version 2.11.4 (APT, www.thermofisher.com/kr/en/home/life-science/microarray-analysis/microarray-analysis-partners-programs/affymetrix-developers-network/affymetrix-power-tools.html, accessed on 1 September 2021). […]
# LDLR [5] = assay: Western blot assay of LDLR protein expression in HepG2 cells; assay type: cell-based, human; conditions: HepG2 cells, 3, 10 and 30 μM
# Protocol: as §2
# The protein expression levels of LDLR in the HepG2 cells were determined by Western blot assay at Cosmo Genetech (Sungsoo, Seoul, Korea). Briefly, cell protein extracts were prepared using radioimmunoprecipitation assay buffer (Thermo Scientific, Pierce, Rockford, IL, USA). Twenty micrograms of protein lysate were separated by electrophoresis on a 10% sodium dodecyl-sulfate (SDS)-polyacrylamide gel electrophoresis (PAGE) gel (Bio-Rad, Hercules, CA, USA) and transferred to a nitrocellulose membrane (Hybond-C Extra; GE Healthcare, Piscataway, NJ, USA). Nonspecific binding was blocked with 5% milk and incubated with 1:1000 primary antibody (LDLR Rabbit-mAb, #ab52818, Abcam) overnight at 4 °C. The secondary antibodies (horseradish peroxidase [HRP]-conjugated mouse anti-rabbit IgG, #SC-2357, Santa Cruz) were diluted 1:3000 in a fresh blocking solution. Protein bands were detected using the SuperSignal West Femto Kit (Thermo Fisher Scientific Inc., Waltham, MA, USA).
# [6] = tested on: methionine-choline-deficient (MCD) diet induced NASH mouse model; assay: MCD diet-induced NASH mouse model; assay type: in vivo, C57BL/6 mice; conditions: 30 mg/kg once-daily oral, 4 weeks
# Protocol: In addition, the MCD diet-induced histopathological changes, such as steatosis and fibrosis in liver tissues, were ameliorated by treatment with KRX-104130 (Figure 8D).
# Animal studies were carried out following the guidelines for animal care approved by the Institutional Animal Care and Use Committee at the Korea Research Institute of Chemical Technology (approval number: 2020-6A-10-01). Nine-week-old male C57BL/6 mice (Orient Bio, Sungnam, Korea) were randomly divided into three groups: a control group that was fed MCS diet, the NASH model group, and the treatment group that was fed an MCD diet with once-daily oral administration of vehicle (0.5% carboxymethyl cellulose) or 30 mg/kg KRX-104130. After 4 weeks of feeding, the mice were fasted overnight, and blood and tissue samples were obtained for biochemical and histological analyses. Liver TG levels and serum concentrations of liver injury markers, including ALT and AST, were determined using a colorimetric kit (MAK266, Sigma-Aldrich, St. Louis, MO, USA) or biochemical analyzer (AU480, Beckman Coulter, Atlanta, GA, USA), respectively, according to the manufacturer’s instructions. The left lobe of the liver was fixed in 10% neutralized buffered formalin and embedded in paraffin. Histological examination was performed using hematoxylin and eosin (H&E) and picrosirius red staining of 5 µm-thick sections.
# T1 sequence (Q12809 whole entry): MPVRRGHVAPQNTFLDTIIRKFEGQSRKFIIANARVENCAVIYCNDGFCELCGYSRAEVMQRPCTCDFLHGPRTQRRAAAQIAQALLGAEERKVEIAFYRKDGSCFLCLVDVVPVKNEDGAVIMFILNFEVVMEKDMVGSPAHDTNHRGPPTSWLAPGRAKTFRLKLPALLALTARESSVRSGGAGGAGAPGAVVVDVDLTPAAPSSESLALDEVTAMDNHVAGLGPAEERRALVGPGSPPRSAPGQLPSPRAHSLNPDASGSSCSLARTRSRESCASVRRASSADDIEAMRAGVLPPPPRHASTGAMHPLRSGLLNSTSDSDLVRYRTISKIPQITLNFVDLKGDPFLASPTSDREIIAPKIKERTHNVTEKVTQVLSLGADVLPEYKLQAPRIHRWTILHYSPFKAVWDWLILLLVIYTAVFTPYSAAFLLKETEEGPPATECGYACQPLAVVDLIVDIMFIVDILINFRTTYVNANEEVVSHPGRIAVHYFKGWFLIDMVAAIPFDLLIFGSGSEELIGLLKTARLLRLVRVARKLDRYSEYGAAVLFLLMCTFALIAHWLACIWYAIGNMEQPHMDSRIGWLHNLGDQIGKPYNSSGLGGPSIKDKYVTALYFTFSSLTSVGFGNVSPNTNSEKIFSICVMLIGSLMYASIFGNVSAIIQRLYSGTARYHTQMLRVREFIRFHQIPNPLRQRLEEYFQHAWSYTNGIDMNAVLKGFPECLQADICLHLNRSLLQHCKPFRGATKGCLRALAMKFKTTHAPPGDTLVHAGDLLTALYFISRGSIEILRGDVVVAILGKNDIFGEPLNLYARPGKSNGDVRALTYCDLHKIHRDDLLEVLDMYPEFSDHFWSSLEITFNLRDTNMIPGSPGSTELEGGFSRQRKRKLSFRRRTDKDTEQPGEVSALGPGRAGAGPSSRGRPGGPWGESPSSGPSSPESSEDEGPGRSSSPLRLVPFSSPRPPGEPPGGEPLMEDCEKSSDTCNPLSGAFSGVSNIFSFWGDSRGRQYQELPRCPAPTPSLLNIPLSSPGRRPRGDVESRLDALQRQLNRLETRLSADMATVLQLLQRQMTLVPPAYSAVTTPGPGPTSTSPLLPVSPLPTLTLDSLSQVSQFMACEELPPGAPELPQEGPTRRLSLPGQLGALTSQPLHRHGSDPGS
smiles,measurement,setting,value
COc1nc2cc(F)c(F)cc2nc1NC(=O)NC1CCN(Cc2ccc3[nH]ncc3c2)CC1 [KRX-104161],IC50,hERG channel,180 nM
same,inhibition at 10 µM,[1],94.8%
same,IC50,[1],10 nM
COc1nc2cc(F)c(F)cc2nc1NC(=O)NC1CCN(Cc2cn(C(C)=O)c3ccccc23)CC1 [KRX-104165],IC50,hERG channel,> 50000 nM
same,inhibition at 10 µM,[1],94.3%
same,IC50,[1],60 nM
same,Tolerability / death after administration to mice,[2],the mouse died immediately after administration
COc1nc2cc(F)c(F)cc2nc1NC(=O)NC1CCN(Cc2ccc3[nH]ccc3c2)CC1 [KRX-104156],IC50,hERG channel,920 nM
same,inhibition at 10 µM,[1],100%
same,IC50,[1],50 nM
CCN(CC)CCN(C)c1cnc2cc(NC(=O)c3ccc(-c4ccc(Cl)cc4)cc3)ccc2n1 [KRX-104137],IC50,hERG channel,420 nM
same,inhibition at 10 µM,[1],96%
same,IC50,[1],10 nM
COc1nc2cc(F)c(F)cc2nc1NC(=O)NC1CCN(Cc2cc3ccccc3[nH]2)CC1 [KRX-104130],LDLR mRNA expression level,LDLR [3],LDLR upregulation in a concentration-dependent manner
same,IC50,hERG channel,13000 nM
same,inhibition at 10 µM,[1],97.1%
same,IC50,[1],20 nM
same,Fold change (FC) CCNE2,[4],−1.96
same,Fold change (FC) DNAJB9,[4],3.50
same,Fold change (FC) HERPUD1,[4],3.17
same,Fold change (FC) HSD17B7,[4],2.22
same,Fold change (FC) INSIG1,[4],2.85
same,Fold change (FC) LDLR,[4],2.79
same,Fold change (FC) MSMO1,[4],3.09
same,Fold change (FC) TIPARP,[4],3.98
same,LDLR protein level,LDLR [5],increased in a concentration-dependent manner
same,Tolerability / death after administration to mice,[2],without specific abnormalities
same,Vd,"[2]; mouse, plasma, iv, 10 mg/kg",14.2 ± 0.72 L/kg
same,clearance,"[2]; mouse, plasma, iv, 10 mg/kg",36.8 mL/min/kg
same,half-life,"[2]; mouse, plasma, iv, 10 mg/kg",5.71 ± 1.03 h
same,AUC(0-t),"[2]; mouse, plasma, iv, 10 mg/kg, I.V.",4550 ± 220 ng·h/mL
same,bioavailability,"[2]; mouse, plasma, oral, 20 mg/kg",20.3%
same,Cmax,"[2]; mouse, plasma, po, 20 mg/kg",130 ± 50 ng/mL
same,Tmax,"[2]; mouse, plasma, po, 20 mg/kg",6.67 ± 2.31 h
same,half-life,"[2]; mouse, plasma, po, 20 mg/kg",10.2 h
same,AUC(0-t),"[2]; mouse, plasma, po, 20 mg/kg, P.O.",1720 ± 850 ng·h/mL
same,MCD diet-induced histopathological changes (steatosis and fibrosis in liver tissues),[6]; H&E and picrosirius red,ameliorated
same,Liver TG levels,[6]; mean ± S.E.M.,29.73 ± 1.54
same,Serum ALT,[6]; mean ± S.E.M.,163.67 ± 25.85
same,Serum AST,[6]; mean ± S.E.M.,170.5 ± 27.27
